Data: PubChem BioAssay (NCI)
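48-hour exposure; five concentrations; linearly interpolated endpoints. Here, GI50 denotes the concentration required for 50% inhibition of growth. TGI: concentration producing complete growth inhibition.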

Assays:
Assay in all cases: DTP human tumour cell line panel, 48 h
[1] = system: 786-0 renal
[2] = system: A498 renal
[3] = system: A549 NSCLC
[4] = system: ACHN renal
[5] = system: BT-549 breast
[6] = system: CAKI-1 renal
[7] = system: CCRF-CEM leukemia
[8] = system: COLO 205 colon
[9] = system: DU-145 prostate
[10] = system: EKVX NSCLC
[11] = system: HCC-2998 colon
[12] = system: HCT-116 colon
[13] = system: HCT-15 colon
[14] = system: HL-60(TB) leukemia
[15] = system: HOP-62 NSCLC
[16] = system: HOP-92 NSCLC
[17] = system: HS 578T breast
[18] = system: HT29 colon
[19] = system: IGROV1 ovarian
[20] = system: K-562 leukemia
[21] = system: KM12 colon
[22] = system: LOX IMVI melanoma
[23] = system: M14 melanoma
[24] = system: MALME-3M melanoma
[25] = system: MCF7 breast
[26] = system: MDA-MB-231 breast
[27] = system: MDA-MB-435
[28] = system: MOLT-4 leukemia
[29] = system: NCI-H226 lung
[30] = system: NCI-H23 lung
[31] = system: NCI-H460 lung
[32] = system: NCI-H522 lung
[33] = system: NCI/ADR-RES ovarian
[34] = system: OVCAR-3 ovarian
[35] = system: OVCAR-4 ovarian
[36] = system: OVCAR-5 ovarian
[37] = system: OVCAR-8 ovarian
[38] = system: PC-3 prostate
[39] = system: RPMI-8226 leukemia
[40] = system: RXF 393 renal
[41] = system: SF-268 CNS
[42] = system: SF-295 CNS
[43] = system: SF-539 CNS
[44] = system: SK-MEL-2 melanoma
[45] = system: SK-MEL-28 melanoma
[46] = system: SK-MEL-5 melanoma
[47] = system: SK-OV-3 ovarian
[48] = system: SN12C renal
[49] = system: SNB-19 CNS
[50] = system: SNB-75 CNS
[51] = system: SR leukemia
[52] = system: SW-620 colon
[53] = system: T-47D breast
[54] = system: TK-10 renal
[55] = system: U251 CNS
[56] = system: UACC-257 melanoma
[57] = system: UACC-62 melanoma
[58] = system: UO-31 renal

SMILES: Cc1cc(F)cc(NS(=O)(=O)c2ccc(-c3cnc(C4CC4)o3)cc2)c1
- GI50 [1]: 752 nM
- TGI [1]: 16.4 µM
- GI50 [2]: 76.2 nM
- TGI [2]: 1010 nM
- GI50 [3]: 662 nM
- TGI [3]: 14.3 µM
- GI50 [4]: 648 nM
- TGI [4]: 12.8 µM
- GI50 [5]: 1010 nM
- TGI [5]: 9.82 µM
- GI50 [6]: 86.9 nM
- TGI [6]: 13.1 µM
- GI50 [7]: 199 nM
- TGI [7]: 13.5 µM
- GI50 [8]: 246 nM
- TGI [8]: 1760 nM
- GI50 [9]: 421 nM
- TGI [9]: 13.8 µM
- GI50 [10]: 591 nM
- TGI [10]: 13.9 µM
- GI50 [11]: 739 nM
- TGI [11]: 10.7 µM
- GI50 [12]: 225 nM
- TGI [12]: 10.9 µM
- GI50 [13]: 83.6 nM
- TGI [13]: 11.4 µM
- GI50 [14]: 99.3 nM
- TGI [14]: 769 nM
- GI50 [15]: 362 nM
- TGI [15]: 14.6 µM
- GI50 [16]: 422 nM
- TGI [16]: 5.04 µM
- GI50 [17]: 303 nM
- TGI [17]: 7.85 µM
- GI50 [18]: 105 nM
- TGI [18]: 12.2 µM
- GI50 [19]: 252 nM
- TGI [19]: 13.6 µM
- GI50 [20]: 49.4 nM
- TGI [20]: 12.3 µM
- GI50 [21]: 183 nM
- TGI [21]: 11.6 µM
- GI50 [22]: 301 nM
- TGI [22]: 12.7 µM
- GI50 [23]: 285 nM
- TGI [23]: 13 µM
- GI50 [24]: 837 nM
- TGI [24]: 20.9 µM
- GI50 [25]: 80.6 nM
- TGI [25]: 12.1 µM
- GI50 [26]: 827 nM
- TGI [26]: 13.6 µM
- GI50 [27]: 31.4 nM
- TGI [27]: 145 nM
- GI50 [28]: 366 nM
- TGI [28]: 15.4 µM
- GI50 [29]: 489 nM
- TGI [29]: 7.82 µM
- GI50 [30]: 585 nM
- TGI [30]: 12.6 µM
- GI50 [31]: 142 nM
- TGI [31]: 2.03 µM
- GI50 [32]: 372 nM
- TGI [32]: 10.8 µM
- GI50 [33]: 120 nM
- TGI [33]: 5.29 µM
- GI50 [34]: 52.3 nM
- TGI [34]: 11 µM
- GI50 [35]: 0.967 µM
- TGI [35]: 15.2 µM
- GI50 [36]: 926 nM
- TGI [36]: 15.5 µM
- GI50 [37]: 735 nM
- TGI [37]: 14.7 µM
- GI50 [38]: 342 nM
- TGI [38]: 12.3 µM
- GI50 [39]: 179 nM
- TGI [39]: 1.87 µM
- GI50 [40]: 161 nM
- TGI [40]: 0.603 µM
- GI50 [41]: 1500 nM
- TGI [41]: 13.2 µM
- GI50 [42]: 127 nM
- TGI [42]: 3.49 µM
- GI50 [43]: 271 nM
- TGI [43]: 2.99 µM
- GI50 [44]: 1030 nM
- TGI [44]: 15.5 µM
- GI50 [45]: 1.89 µM
- TGI [45]: 16.6 µM
- GI50 [46]: 266 nM
- TGI [46]: 1890 nM
- GI50 [47]: 748 nM
- TGI [47]: 15.4 µM
- GI50 [48]: 773 nM
- TGI [48]: 11.6 µM
- GI50 [49]: 441 nM
- TGI [49]: 15 µM
- GI50 [50]: 159 nM
- TGI [50]: 1570 nM
- GI50 [51]: 46.4 nM
- TGI [51]: 5.91 µM
- GI50 [52]: 98.8 nM
- TGI [52]: 14.4 µM
- GI50 [53]: 268 nM
- TGI [53]: 21.8 µM
- GI50 [54]: 3.17 µM
- TGI [54]: 16.7 µM
- GI50 [55]: 451 nM
- TGI [55]: 14.5 µM
- GI50 [56]: 1.77 µM
- TGI [56]: 12.1 µM
- GI50 [57]: 122 nM
- TGI [57]: 8.86 µM
- GI50 [58]: 848 nM
- TGI [58]: 12.6 µM

SMILES: CCC(CC)N1C(=O)/C(=c2\sc3n(c2=O)C2C(NN=3)N(CC)C(=O)N2CC)c2ccccc21 (stereo not given)
- GI50 [1]: 665 nM
- TGI [1]: 14.8 µM
- GI50 [2]: 287 nM
- TGI [2]: 925 nM
- GI50 [3]: 503 nM
- TGI [3]: 21.7 µM
- GI50 [4]: 690 nM
- TGI [4]: 16.6 µM
- GI50 [5]: 465 nM
- TGI [5]: 3.29 µM
- GI50 [6]: 577 nM
- TGI [6]: 14.9 µM
- GI50 [7]: 365 nM
- TGI [7]: > 94 µM
- GI50 [8]: 317 nM
- TGI [8]: 1120 nM
- GI50 [9]: 453 nM
- TGI [9]: 17.2 µM
- GI50 [10]: 734 nM
- TGI [10]: > 87.8 µM
- GI50 [11]: 370 nM
- TGI [11]: 12.6 µM
- GI50 [12]: 345 nM
- TGI [12]: 5.18 µM
- GI50 [13]: 353 nM
- TGI [13]: 13.1 µM
- GI50 [14]: 288 nM
- TGI [14]: 888 nM
- GI50 [15]: 554 nM
- TGI [15]: 22.5 µM
- GI50 [16]: 2410 nM
- TGI [16]: 45.4 µM
- GI50 [17]: 381 nM
- TGI [17]: 22.5 µM
- GI50 [18]: 326 nM
- TGI [18]: 3.04 µM
- GI50 [19]: 554 nM
- TGI [19]: 19.2 µM
- GI50 [20]: 351 nM
- TGI [20]: > 100 µM
- GI50 [21]: 431 nM
- TGI [21]: 25.1 µM
- GI50 [22]: 345 nM
- TGI [22]: 11.1 µM
- GI50 [23]: 337 nM
- TGI [23]: 11.5 µM
- GI50 [24]: 3460 nM
- TGI [24]: 35.1 µM
- GI50 [25]: 364 nM
- TGI [25]: 14 µM
- GI50 [26]: 591 nM
- TGI [26]: 12 µM
- GI50 [27]: 240 nM
- TGI [27]: 602 nM
- GI50 [28]: 434 nM
- TGI [28]: > 41.1 µM
- GI50 [29]: 923 nM
- TGI [29]: 37.1 µM
- GI50 [30]: 535 nM
- TGI [30]: 17.8 µM
- GI50 [31]: 364 nM
- TGI [31]: 29 µM
- GI50 [32]: 312 nM
- TGI [32]: 3.36 µM
- GI50 [33]: 385 nM
- TGI [33]: 15.6 µM
- GI50 [35]: 10.4 µM
- TGI [35]: > 100 µM
- GI50 [36]: 538 nM
- TGI [36]: 35.3 µM
- GI50 [37]: 397 nM
- TGI [37]: 26.7 µM
- GI50 [38]: 473 nM
- TGI [38]: > 100 µM
- GI50 [39]: 442 nM
- TGI [39]: 8.45 µM
- GI50 [40]: 326 nM
- TGI [40]: 16.7 µM
- GI50 [41]: 1070 nM
- TGI [41]: 29.3 µM
- GI50 [42]: 324 nM
- TGI [42]: 12.3 µM
- GI50 [43]: 307 nM
- TGI [43]: 3.43 µM
- GI50 [44]: 1920 nM
- TGI [44]: 5.88 µM
- GI50 [45]: 5.82 µM
- TGI [45]: 60.2 µM
- GI50 [46]: 590 nM
- TGI [46]: 4100 nM
- GI50 [47]: 629 nM
- TGI [47]: 51.8 µM
- GI50 [48]: 1200 nM
- TGI [48]: 17.8 µM
- GI50 [49]: 465 nM
- TGI [49]: 24.6 µM
- GI50 [50]: 198 nM
- TGI [50]: 714 nM
- GI50 [51]: 361 nM
- TGI [51]: > 35.1 µM
- GI50 [52]: 458 nM
- TGI [52]: > 100 µM
- GI50 [53]: 2800 nM
- TGI [53]: > 65.6 µM
- GI50 [54]: 9.04 µM
- TGI [54]: 29.1 µM
- GI50 [55]: 405 nM
- TGI [55]: 15.5 µM
- GI50 [56]: 7.21 µM
- TGI [56]: > 78 µM
- GI50 [57]: 538 nM
- TGI [57]: 21.6 µM
- GI50 [58]: 688 nM
- TGI [58]: 33.8 µM
